Laboratory results from patent publication US12728126B2, “Compounds for inhibiting LY6K and methods of using same” (The Henry M. Jackson Foundation for the Advancement of …, priority 2020, dated 2026).

Legend:
[1] = test system: PD-L1; test: PD-L1 measured in live cells after IFN γ treatment; assay type: cell-based; settings: serum starved, 100 ng/ml IFN γ, 2 μM drug
Method: Cells were serum starved and treated with 100 ng/ml IFN γ with 2 μM drugs. PD-L1 was measured in live cells (using a zombie live-dead stain). The graph was plotted from three experiments. A 7.9-fold decrease in the number of cells with high PD-L1 expression was observed.

[2] = test system: LC3B; test: Western blot of autophagy marker LC3B in 4T1 cells; assay type: cell-based, mouse; settings: 0.1 μM, 1.0 μM or 5.0 μM, 16 hours
Method: (§1) 4T1 mammary cells were plated at the same cell density. Cells were serum starved overnight. They were supplemented with medium containing 10% serum with or without doses of Compound I (0.1 μM, 1.0 μM or 5.0 μM) and for 16 hours. Equal quantity of protein was loaded for western blot analysis.

[3] = target: T1, LY6K (Mus musculus, UniProt Q9CWP4); test: Western blot of total LY6K level in 4T1 cells; assay type: cell-based; parameters: dose or concentration left out as unconfirmed; settings: overnight
T1 construct: endogenous in cells; host or cells: 4T1 mouse mammary tumor cells
T1 sequence (Q9CWP4 21-123): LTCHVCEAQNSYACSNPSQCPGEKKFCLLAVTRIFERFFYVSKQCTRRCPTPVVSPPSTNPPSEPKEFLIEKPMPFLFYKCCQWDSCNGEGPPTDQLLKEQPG
Method: 4T1 cells were treated with a concentration of 0.1 […] of Compound I overnight.

[4] = test system: 4T1 mouse mammary tumor cells; test: 4T1 syngeneic mammary tumor model, tumor growth in vivo; parameters: species or system Balb/c mice; settings: 4T1 model
Method: A syngeneic mammary tumor model is used to show the effect of Ly6K small molecule inhibitors on tumor growth in vivo. 4T1 mouse model is an orthotopic allograft model (also called the spontaneous tumor metastasis model). In the 4T1 mouse model, 4T1 mouse mammary tumor cells were injected into the second mammary gland of syngenetic Balb/c mice, and the spontaneous metastasis to the lung were analyzed with a colonogenic assay. 4T1 mice bearing 50-70 mm^3 tumors were treated with NSC243928 or NSC11150 every second day at a dosage of 5 mg/kg in saline. Each group had 10 mice. Tumor measurements were performed using a Vernier caliper. The tumor volumes were calculated using equation ½*length*(width*width).

[5] = test system: caspase 7; test: Western blot of caspase 7 activation in 4T1 cells; assay type: cell-based, mouse; settings: 0.1 μM, 1.0 μM or 5.0 μM, 16 hours
Method: Cancer cells accumulate various mutations in their genome, yet they are protected against DNA damage induced apoptosis. Poly (ADP-ribose) polymerase (PARP) is a protein which facilitates DNA repair, genomic stability, and inhibits programmed cell death. PARP proteins are inactivated by cleavage of caspase 3 and caspase 7 in vivo. PARP inactivation cleavage and caspase activation by western blot was studied.
as §1

[6] = test system: Myeloid-derived suppressor cells (MDSCs); test: MDSCs (Cd11b and Gr1 dual positive cells) in peripheral blood of 4T1 tumor bearing mice, flow cytometry; assay type: in vivo; settings: three doses of 50 mg/kg
Method: Myeloid-derived suppressor cells (MDSCs) are a major cell type which suppress the anti-tumor response. Cd11b and Gr1 dual positive cells in lymphocytes from peripheral blood from 4T1 tumor bearing mice received Compound I and the control group (10 mice in each group).
Three doses of Compound I (50 mg/kg) was injected via intravenously and intraperitoneally, and intravenous and peripheral blood was collected. Freshly isolated lymphocytes were stained with Cd11b and Gr-1 and a dye which can discriminated live and dead cells. The flow cytometry analysis for dual positivity was performed by gating on the live cells.

[7] = test system: RhoA; test: Western blot of motility marker RhoA in 4T1 cells; assay type: cell-based, mouse; settings: 0.1 μM, 1.0 μM or 5.0 μM, 16 hours
Method: as §1

[8] = test system: E0771 tumors; test: E0771 mammary tumor in syngeneic C57Bl/6 model, tumor growth and re-challenge; assay type: in vivo, C57BL6 mice
Method: Treatment of E0771 tumors in a syngeneic C57Bl/6 model with compounds described herein reduced tumor growth, while combination treatment with the two small molecules completely eliminated tumor growth. The treatment was halted after tumor disappearance. Three weeks later, the cured mice were re-challenged with E0771 tumor cells, with complete, durable protection against tumor growth.
In another study, syngeneic female C57BL6 mice were injected with mammary tumor cell line E0771 in the 4th mammary gland. After tumors were palpable, they were injected intra-peritoneal injection every 3rd day at 10 mg/kg. The tumor measurements were performed with caliper method. 5 out of 5 control mice continued to sustained tumor growth. […] The drug treatment was stopped after the resolve of the tumors. The cured mice (three out of five) were kept under observation for one month. These mice were re-challenged with E0771 tumor cell inoculation into mammary gland. A control naïve group of C57BL6 were simultaneous inoculated with same batch of E0771 tumor cells in to mammary gland. Tumor progression was monitored in both group. […] Tumor volume was measured in mm^3. Thus, Compound I treatment resolves tumor and induces anti-tumor immunity.

[9] = test system: 4T1 mammary cancer cells; test: 4T1 cellular morphology and growth after 16 hours treatment; assay type: cell-based, mouse
Method: 4T1 mammary cancer cells show lack of contact inhibited cell growth, i.e. the cells can grow on top of each other. 4T1 mammary cells were plated at the same cell density. Cells were serum starved overnight. They were supplemented with medium containing 10% serum with or without indicated doses of the Compound I for 16 hours.

[10] = E0771, intra-peritoneal, every 3rd day, 10 mg/kg

For CCS(=O)(=O)Nc1ccc(Nc2c3ccccc3nc3ccccc23)c(OC)c1 [Compound I, N-(4-(acridin-9-ylamino)-3-methoxyphenyl)ethanesulfonamide], the “inhibitory effect on cells with high expression of PD-L1” value [1] was “does not have inhibitory effect”, the “marker of autophagy LC3B” value [2] was “activated” and the “total level of LY6K” value [3] was “dose response reduction”. The “day following treatment at which inhibition on tumor growth is statistically significant” value ([4]; 5 mg/kg every second day, P<0.005) was 3 days, the “inhibitory effect on tumor growth in vivo” value ([4]; 5 mg/kg in saline every second day) was “significant inhibitory effects” and the “caspase 7 activation” value [5] was “activated”. The “lower MDSCs in peripheral blood of treated mice” value [6] was “more than 90%”, the “Cd11b and Gr-1 dual positive cells in treated group” value ([6]; gated on live cells) was “significantly lower” and the “marker of motility RhoA” value [7] was “downregulated”. For the same compound, the “treated mice with complete resolve of mammary tumor” value [8, 10] was 3 out of 5, the “treated mice with partial response” value [8, 10] was 2 out of 5 and the “cured mice that remained immune to tumor cells on re-challenge” value ([8]; re-challenged with E0771 after one month observation) was “Three out of three”. The “cellular growth of 4T1 cells” value ([9]; 0.1 μM) was “inhibited the cellular growth”, the “cellular growth of 4T1 cells” value ([9]; 1.0 μM) was “inhibited the cellular growth” and the “cell density of 4T1 cells” value ([9]; 5.0 μM) was “reduced cell density”.
